Assay results as given in US20260242419A1, “A CYCLIC PEPTIDE FOR TRAPPING INTERLEUKIN-1 BETA” (Merck Sharp & Dohme LLC, priority 2023, published 2026).
Starred links: 1 amine or outer side, 2 acyl side, 3 side chain; linkers in the order of their positions; H or OH if unused. Non-standard residues stand in square brackets, D forms with d. Residues, ends and D or L forms follow the SMILES beside them. Phe(4-(cis-4-COOH-cHex)) = N[C@@H](Cc1ccc([C@H]2CC[C@@H](C(=O)O)CC2)cc1)C(=O)O; dPro(4R-(4-pyridylmethyl)) = O=C(O)[C@H]1C[C@@H](Cc2ccncc2)CN1; Trp(βS-Me,4-F) = C[C@@H](c1c[nH]c2cccc(F)c12)[C@H](N)C(=O)O; X35 = O=C(O)C12CC(c3ccc(C[C@H](N[*:1])C(=O)[*:2])cc3)(C1)C2; Bip(4'-COOH) = N[C@@H](Cc1ccc(-c2ccc(C(=O)O)cc2)cc1)C(=O)O; Ala(1-bicyclo(1.1.1)pentyl) = N[C@@H](CC12CC(C1)C2)C(=O)O; X21 = O=C(O)c1ccc(-c2ccc(C[C@H](N[*:1])C(=O)[*:2])cn2)cc1; dPro(4R-Bzl(4-F)) = O=C(O)[C@H]1C[C@@H](Cc2ccc(F)cc2)CN1; Ala(pyrimidin-5-yl) = N[C@@H](Cc1cncnc1)C(=O)O; Phe(4-COOH) = N[C@@H](Cc1ccc(C(=O)O)cc1)C(=O)O; X36 = O=C(O)c1ccc(C[C@H](N[*:1])C(=O)[*:2])cn1; Ala(2-pyrazinyl) = N[C@@H](Cc1cnccn1)C(=O)O; Pro(cis-4-F) = O=C(O)[C@@H]1C[C@H](F)CN1; X47 = O=C([C@H](Cc1cccnn1)N[*:1])[*:2]; 4Pal = N[C@@H](Cc1ccncc1)C(=O)O; αMeS = C[C@](N)(CO)C(=O)O; Orn = NCCC[C@H](N)C(=O)O; Api = NC1(C(=O)O)CCNCC1; Dab = NCC[C@H](N)C(=O)O; Dap = NC[C@H](N)C(=O)O; Aib = CC(C)(N)C(=O)O

The molecules below were run against T1, IL-1β (Homo sapiens, UniProt P01584) (assay: IL-6 assay in MRC5 cells: inhibition of IL-1β induced IL-6 secretion (AlphaLISA)). Conditions: inhibition of IL-1β induced IL-6 secretion in MRC5 cells; read-out: MRC5 IC50.
T1 construct: purchased BioLegend 579404
Assay type: cell-based
Method in brief: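 Compound was pre-incubated 1 h at ambient temperature with recombinant human IL-1β at 2λ EC80 before adding human lung fibroblast MRC5 cells (3000/well) in EMEM with 0.025% BSA. After overnight culture at 37 °C, 5% CO2, secreted IL-6 in conditioned medium was measured by AlphaLISA; IC50 from 4-parameter logistic fits.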

T1 sequence (P01584 117-269): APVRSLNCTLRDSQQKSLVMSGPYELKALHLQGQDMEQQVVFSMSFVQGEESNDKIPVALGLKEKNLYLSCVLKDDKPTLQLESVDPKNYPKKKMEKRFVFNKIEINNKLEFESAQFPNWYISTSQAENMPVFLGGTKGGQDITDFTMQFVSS

Row | SMILES | IC50 [nM]
1 | C[C@@H](c1c[nH]c2cccc(F)c12)[C@@H]1NC(=O)[C@@H]2C[C@H](F)CN2C(=O)CNC(=O)[C@H](Cc2ccc(C(=O)O)cc2)NC(=O)[C@H](Cc2ccncc2)NC(=O)[C@H](Cc2ccc(-c3ccc(C(=O)O)cc3)cc2)NC(=O)[C@H]2C[C@@H](Cc3ccc(F)cc3)CN2C(=O)CNC(=O)[C@H](CCN)NC(=O)[C@H](CCC(N)=O)NC(=O)[C@H](Cc2cccnn2)NC(=O)C(C)(C)NC(=O)[C@H](Cc2c[nH]c3ccccc23)NC(=O)[C@H](CCC(=O)O)NC(=O)C(C)(C)NC1=O [Example 102] (cyclo([Bip(4'-COOH)][4Pal][Phe(4-COOH)]G[Pro(cis-4-F)][Trp(βS-Me,4-F)][Aib]EW[Aib][X47]Q[Dab]G[dPro(4R-Bzl(4-F))])) | 0.021
2 | C[C@@H](c1c[nH]c2cccc(F)c12)[C@@H]1NC(=O)[C@@H]2C[C@H](F)CN2C(=O)CNC(=O)[C@H](Cc2ccc(C(=O)O)cc2)NC(=O)[C@H](CC23CC(C2)C3)NC(=O)[C@H](Cc2ccc([C@H]3CC[C@@H](C(=O)O)CC3)cc2)NC(=O)[C@H]2C[C@@H](Cc3ccc(F)cc3)CN2C(=O)CNC(=O)[C@H](CCN)NC(=O)[C@H](CCC(N)=O)NC(=O)[C@H](CO)NC(=O)C2(CCNCC2)NC(=O)[C@H](Cc2c[nH]c3ccccc23)NC(=O)[C@H](CCC(=O)O)NC(=O)C(C)(C)NC1=O [Example 105] (cyclo([Phe(4-(cis-4-COOH-cHex))][Ala(1-bicyclo(1.1.1)pentyl)][Phe(4-COOH)]G[Pro(cis-4-F)][Trp(βS-Me,4-F)][Aib]EW[Api]SQ[Dab]G[dPro(4R-Bzl(4-F))])) | 0.083
3 | C[C@@H](c1c[nH]c2cccc(F)c12)[C@@H]1NC(=O)[C@@H]2C[C@H](F)CN2C(=O)CNC(=O)[C@H](Cc2ccc(C(=O)O)cc2)NC(=O)[C@H](CC23CC(C2)C3)NC(=O)[C@H](Cc2ccc([C@H]3CC[C@@H](C(=O)O)CC3)cc2)NC(=O)[C@H]2C[C@@H](Cc3ccc(F)cc3)CN2C(=O)CNC(=O)[C@H](CCN)NC(=O)[C@H](CCC(N)=O)NC(=O)[C@H](CO)NC(=O)C(C)(C)NC(=O)[C@H](Cc2c[nH]c3ccccc23)NC(=O)[C@H](CO)NC(=O)C(C)(C)NC1=O [Example 106] (cyclo([Phe(4-(cis-4-COOH-cHex))][Ala(1-bicyclo(1.1.1)pentyl)][Phe(4-COOH)]G[Pro(cis-4-F)][Trp(βS-Me,4-F)][Aib]SW[Aib]SQ[Dab]G[dPro(4R-Bzl(4-F))])) | 0.031
4 | C[C@@H](c1c[nH]c2cccc(F)c12)[C@@H]1NC(=O)[C@@H]2C[C@H](F)CN2C(=O)CNC(=O)[C@H](Cc2ccc(C(=O)O)cc2)NC(=O)[C@H](CC23CC(C2)C3)NC(=O)[C@H](Cc2ccc([C@H]3CC[C@@H](C(=O)O)CC3)cc2)NC(=O)[C@H]2C[C@@H](Cc3ccc(F)cc3)CN2C(=O)CNC(=O)[C@H](CCN)NC(=O)[C@H](CCC(N)=O)NC(=O)[C@H](CO)NC(=O)C(C)(C)NC(=O)[C@H](Cc2c[nH]c3ccccc23)NC(=O)[C@H](CCC(=O)O)NC(=O)[C@](C)(CO)NC1=O [Example 107] (cyclo([Phe(4-(cis-4-COOH-cHex))][Ala(1-bicyclo(1.1.1)pentyl)][Phe(4-COOH)]G[Pro(cis-4-F)][Trp(βS-Me,4-F)][αMeS]EW[Aib]SQ[Dab]G[dPro(4R-Bzl(4-F))])) | 0.063
5 | C[C@@H](c1c[nH]c2cccc(F)c12)[C@@H]1NC(=O)[C@@H]2C[C@H](F)CN2C(=O)CNC(=O)[C@H](Cc2ccc(C(=O)O)cc2)NC(=O)[C@H](Cc2ccncc2)NC(=O)[C@H](Cc2ccc(-c3ccc(C(=O)O)cc3)cc2)NC(=O)[C@H]2C[C@@H](Cc3ccncc3)CN2C(=O)CNC(=O)[C@H](CCCN)NC(=O)[C@H](CCC(N)=O)NC(=O)[C@H](Cc2cncnc2)NC(=O)C(C)(C)NC(=O)[C@H](Cc2c[nH]c3ccccc23)NC(=O)[C@H](CO)NC(=O)C(C)(C)NC1=O [Example 108] (cyclo([Bip(4'-COOH)][4Pal][Phe(4-COOH)]G[Pro(cis-4-F)][Trp(βS-Me,4-F)][Aib]SW[Aib][Ala(pyrimidin-5-yl)]Q[Orn]G[dPro(4R-(4-pyridylmethyl))])) | 0.024

Second part, the molecule after the results:

Row | IC50 [nM] | SMILES
6 | 0.036 | C[C@@H](c1c[nH]c2cccc(F)c12)[C@@H]1NC(=O)[C@@H]2C[C@H](F)CN2C(=O)CNC(=O)[C@H](Cc2ccc(C(=O)O)cc2)NC(=O)[C@H](CC23CC(C2)C3)NC(=O)[C@H](Cc2ccc(-c3ccc(C(=O)O)cc3)cc2)NC(=O)[C@H]2C[C@@H](Cc3ccc(F)cc3)CN2C(=O)CNC(=O)[C@H](CCN)NC(=O)[C@H](CCC(N)=O)NC(=O)[C@H](CO)NC(=O)C(C)(C)NC(=O)[C@H](Cc2c[nH]c3ccccc23)NC(=O)[C@H](CO)NC(=O)[C@](C)(CO)NC1=O [Example 97] (cyclo([Bip(4'-COOH)][Ala(1-bicyclo(1.1.1)pentyl)][Phe(4-COOH)]G[Pro(cis-4-F)][Trp(βS-Me,4-F)][αMeS]SW[Aib]SQ[Dab]G[dPro(4R-Bzl(4-F))]))
7 | 0.058 | C[C@@H](c1c[nH]c2cccc(F)c12)[C@@H]1NC(=O)[C@@H]2C[C@H](F)CN2C(=O)CNC(=O)[C@H](Cc2ccc(C(=O)O)nc2)NC(=O)[C@H](CC23CC(C2)C3)NC(=O)[C@H](Cc2ccc(-c3ccc(C(=O)O)cc3)cc2)NC(=O)[C@H]2C[C@@H](Cc3ccc(F)cc3)CN2C(=O)CNC(=O)[C@H](CCN)NC(=O)[C@H](CCC(N)=O)NC(=O)[C@H](Cc2cncnc2)NC(=O)C(C)(C)NC(=O)[C@H](Cc2c[nH]c3ccccc23)NC(=O)[C@H](CCC(=O)O)NC(=O)C(C)(C)NC1=O [Example 98] (cyclo([Bip(4'-COOH)][Ala(1-bicyclo(1.1.1)pentyl)][X36]G[Pro(cis-4-F)][Trp(βS-Me,4-F)][Aib]EW[Aib][Ala(pyrimidin-5-yl)]Q[Dab]G[dPro(4R-Bzl(4-F))]))
8 | 0.031 | C[C@@H](c1c[nH]c2cccc(F)c12)[C@@H]1NC(=O)[C@@H]2C[C@H](F)CN2C(=O)CNC(=O)[C@H](Cc2ccc(C(=O)O)cc2)NC(=O)[C@H](CC23CC(C2)C3)NC(=O)[C@H](Cc2ccc(C34CC(C(=O)O)(C3)C4)cc2)NC(=O)[C@H]2C[C@@H](Cc3ccc(F)cc3)CN2C(=O)CNC(=O)[C@H](CCN)NC(=O)[C@H](CCC(N)=O)NC(=O)[C@H](Cc2cncnc2)NC(=O)C(C)(C)NC(=O)[C@H](Cc2c[nH]c3ccccc23)NC(=O)[C@H](CCC(=O)O)NC(=O)C(C)(C)NC1=O [Example 99] (cyclo([Aib]EW[Aib][Ala(pyrimidin-5-yl)]Q[Dab]G[dPro(4R-Bzl(4-F))][X35][Ala(1-bicyclo(1.1.1)pentyl)][Phe(4-COOH)]G[Pro(cis-4-F)][Trp(βS-Me,4-F)]))
9 | 0.074 | C[C@@H](c1c[nH]c2cccc(F)c12)[C@@H]1NC(=O)[C@@H]2C[C@H](F)CN2C(=O)CNC(=O)[C@H](Cc2ccc(C(=O)O)cc2)NC(=O)[C@H](CC23CC(C2)C3)NC(=O)[C@H](Cc2ccc(-c3ccc(C(=O)O)cc3)nc2)NC(=O)[C@H]2C[C@@H](Cc3ccc(F)cc3)CN2C(=O)CNC(=O)[C@H](CCN)NC(=O)[C@H](CCC(N)=O)NC(=O)[C@H](CN)NC(=O)C(C)(C)NC(=O)[C@H](Cc2c[nH]c3ccccc23)NC(=O)[C@H](CCC(=O)O)NC(=O)C(C)(C)NC1=O [Example 100] (cyclo([X21][Ala(1-bicyclo(1.1.1)pentyl)][Phe(4-COOH)]G[Pro(cis-4-F)][Trp(βS-Me,4-F)][Aib]EW[Aib][Dap]Q[Dab]G[dPro(4R-Bzl(4-F))]))
10 | 0.021 | C[C@@H](c1c[nH]c2cccc(F)c12)[C@@H]1NC(=O)[C@@H]2C[C@H](F)CN2C(=O)CNC(=O)[C@H](Cc2ccc(C(=O)O)cc2)NC(=O)[C@H](Cc2ccncc2)NC(=O)[C@H](Cc2ccc(-c3ccc(C(=O)O)cc3)cc2)NC(=O)[C@H]2C[C@@H](Cc3ccc(F)cc3)CN2C(=O)CNC(=O)[C@H](CCN)NC(=O)[C@H](CCC(N)=O)NC(=O)[C@H](Cc2cnccn2)NC(=O)C(C)(C)NC(=O)[C@H](Cc2c[nH]c3ccccc23)NC(=O)[C@H](CCC(=O)O)NC(=O)C(C)(C)NC1=O [Example 101] (cyclo([4Pal][Phe(4-COOH)]G[Pro(cis-4-F)][Trp(βS-Me,4-F)][Aib]EW[Aib][Ala(2-pyrazinyl)]Q[Dab]G[dPro(4R-Bzl(4-F))][Bip(4'-COOH)]))
11 | 0.036 | C[C@@H](c1c[nH]c2cccc(F)c12)[C@@H]1NC(=O)[C@@H]2C[C@H](F)CN2C(=O)CNC(=O)[C@H](Cc2ccc(C(=O)O)cc2)NC(=O)[C@H](CC23CC(C2)C3)NC(=O)[C@H](Cc2ccc(-c3ccc(C(=O)O)cc3)cc2)NC(=O)[C@H]2C[C@@H](Cc3ccncc3)CN2C(=O)CNC(=O)[C@H](CCCN)NC(=O)[C@H](CCC(N)=O)NC(=O)[C@H](Cc2cncnc2)NC(=O)C(C)(C)NC(=O)[C@H](Cc2c[nH]c3ccccc23)NC(=O)[C@H](CO)NC(=O)C(C)(C)NC1=O [Example 109] (cyclo([Bip(4'-COOH)][Ala(1-bicyclo(1.1.1)pentyl)][Phe(4-COOH)]G[Pro(cis-4-F)][Trp(βS-Me,4-F)][Aib]SW[Aib][Ala(pyrimidin-5-yl)]Q[Orn]G[dPro(4R-(4-pyridylmethyl))]))
12 | 0.038 | C[C@@H](c1c[nH]c2cccc(F)c12)[C@@H]1NC(=O)[C@@H]2C[C@H](F)CN2C(=O)CNC(=O)[C@H](Cc2ccc(C(=O)O)cc2)NC(=O)[C@H](CC23CC(C2)C3)NC(=O)[C@H](Cc2ccc(-c3ccc(C(=O)O)cc3)cc2)NC(=O)[C@H]2C[C@@H](Cc3ccc(F)cc3)CN2C(=O)CNC(=O)[C@H](CCN)NC(=O)[C@H](CCC(N)=O)NC(=O)[C@H](CCCN)NC(=O)C(C)(C)NC(=O)[C@H](Cc2c[nH]c3ccccc23)NC(=O)[C@H](CO)NC(=O)C(C)(C)NC1=O [Example 110] (cyclo([Bip(4'-COOH)][Ala(1-bicyclo(1.1.1)pentyl)][Phe(4-COOH)]G[Pro(cis-4-F)][Trp(βS-Me,4-F)][Aib]SW[Aib][Orn]Q[Dab]G[dPro(4R-Bzl(4-F))]))
